Source: patent publication US7511074B2, “Tetrafluorobenzyl derivatives and pharmaceutical composition for preventing and treating acute and chronic neurodegenerative diseases in central nervous system containing the same” (AmKor Pharma, Inc., priority 2002, dated 2009)

Test system: ALS mice (G93A human SOD1 mutation)
Assay: Neuronal death in spinal cord of ALS transgenic mice (SOD1-G93A)
Type: in vivo, mouse
Description: Bright field photomicrographs of spinal cord sections stained with eosin from amyotrophic lateral sclerosis (ALS) mice over expressing the mutant SOD1-G93A that received vehicle (A) or 2-Hydroxy-TTBA (B, 10 mg/kg/day through drinking water) for 8 weeks from the age of 2 months.
Degenerating neurons from FIG. 7a. were analyzed by counting viable neurons after staining with eosin in the dorsal and ventral horn of spinal cord from ALS mice treated with a vehicle (Control) or 2-Hydroxy-TTBA, mean ±S.E.M (n=5 animals for each condition). *, Significant difference from the vehicle control, p<0.05 using the independent t-test.
Transgenic mice with the G93A human SOD1 mutation (B6SJL-TgN(SOD1-G93A)1Gur), animal models of ALS (ALS mice), were obtained from Jackson Laboratories (ME, USA). 2-hydroxy-TTBA was administered to 2 month-old wild type and ALS transgenic mice through drinking water bottle (10 mg/kg per day) for 8 weeks. Animals were then euthanized and spinal cords processed for histological examination by staining with hematoxylin and eosin. Spinal motor neurons from ALS mice without being treated with 2-hydroxy-TTBA (control) underwent degeneration as evident by eosinophilic staining, which was reduced in ALS mice treated with 2-hydroxy-TTBA (FIG. 7a).
The number of degenerating neurons was analyzed by counting eosinophilic neurons in ventral horn (VH) and dorsal horn (DH).

O=C(O)c1cc(NCc2c(F)c(F)c(C(F)(F)F)c(F)c2F)ccc1O [2-Hydroxy-TTBA, 2-hydroxy-5-(2,3,5,6-tetrafluoro-4-trifluoromethylbenzylamino)benzoic acid]
degeneration of spinal motor neurons (eosinophilic staining) (10 mg/kg per day in drinking water for 8 weeks from 2 months of age): reduced | degeneration of dorsal and ventral horn neurons (count of eosinophilic neurons) (10 mg/kg per day in drinking water for 8 weeks, n=5 animals): significantly prevented degeneration
